Results: patent US9694016B2 (Novartis AG, priority 2013, dated 2017)
pIC50: −log10 of the molar value. Where two headings read alike, the source gives them in different places.

Molecular target: b-Raf (V600E) (Homo sapiens (Human), UniProt P15056, V600E)
Conditions: read-out: b-Raf IC-50, AlphaScreen
[1] = 60 min pre-incubation, reaction 3 hours at room temperature
[2] = 60 min pre-incubation, 3 hours reaction

b-Raf (V600E), sequence (P15056 whole entry V600E): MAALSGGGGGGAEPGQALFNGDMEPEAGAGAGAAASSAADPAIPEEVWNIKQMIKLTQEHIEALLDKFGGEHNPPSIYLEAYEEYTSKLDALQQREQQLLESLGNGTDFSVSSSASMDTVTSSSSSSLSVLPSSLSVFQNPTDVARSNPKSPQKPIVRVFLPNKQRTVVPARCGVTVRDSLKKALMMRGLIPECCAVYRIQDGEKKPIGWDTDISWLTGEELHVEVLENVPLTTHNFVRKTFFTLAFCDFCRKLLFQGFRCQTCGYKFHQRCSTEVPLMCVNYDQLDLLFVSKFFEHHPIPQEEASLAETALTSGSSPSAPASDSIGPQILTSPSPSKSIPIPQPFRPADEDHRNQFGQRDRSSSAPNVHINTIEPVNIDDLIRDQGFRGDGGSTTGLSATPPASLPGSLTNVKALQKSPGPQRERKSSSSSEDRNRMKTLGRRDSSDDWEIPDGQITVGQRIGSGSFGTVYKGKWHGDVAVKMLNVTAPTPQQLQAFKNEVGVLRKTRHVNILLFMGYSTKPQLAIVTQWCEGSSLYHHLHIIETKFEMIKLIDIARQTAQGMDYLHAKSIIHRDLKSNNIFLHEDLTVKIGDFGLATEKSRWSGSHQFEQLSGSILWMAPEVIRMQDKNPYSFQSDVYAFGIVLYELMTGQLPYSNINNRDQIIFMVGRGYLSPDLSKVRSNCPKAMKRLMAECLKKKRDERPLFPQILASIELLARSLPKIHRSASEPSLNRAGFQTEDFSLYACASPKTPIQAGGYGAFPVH

SMILES | pIC50 [1] | pIC50 (Table 2, 3 hours reaction) | further results
Cc1ccc(NC(=O)c2cccc(-c3nnco3)c2)cc1-c1cc(N2CCOCC2)nc(N2CC(O)C2)c1 [Example 1100, N-(3-(2-(3-hydroxyazetidin-1-yl)-6-morpholinopyridin-4-yl)-4-methylphenyl)-3-(1,3,4-oxadiazol-2-yl)benzamide] | 8.41 |  | 
Cc1ncc(NC(=O)c2ccnc(C(C)C)c2)cc1-c1cc(N2CCOCC2)n(C)c(=O)c1 [Example 505, N-(1′,2-dimethyl-6′-morpholino-2′-oxo-1′,2′-dihydro-[3,4′-bipyridin]-5-yl)-2-isopropylisonicotinamide] |  |  | pIC50 [2]: 8.24
Cc1ccc(NC(=O)c2ccnc(C3(C#N)CC3)c2)cc1-c1cc(N2CCOCC2)nc(N2CC(O)C2)c1 [Example 1071, 2-(1-cyanocyclopropyl)-N-(3-(2-(3-hydroxyazetidin-1-yl)-6-morpholinopyridin-4-yl)-4-methylphenyl)isonicotinamide] | 8.68 |  | 
Cc1ncc(NC(=O)c2ccnc(C(F)(F)F)c2)cc1-c1cc(N2CCOCC2)nc(N2CC(O)C2)c1 [Example 1088, N-(2′-(3-hydroxyazetidin-1-yl)-2-methyl-6′-morpholino-[3,4′-bipyridin]-5-yl)-2-(trifluoromethyl)isonicotinamide] | 8.39 |  | 
Cc1ncc(NC(=O)c2cccc(C(F)F)c2)cc1-c1cc(N2CCOCC2)nc(N2CC(O)C2)c1 [Example 1079, 3-(difluoromethyl)-N-(2′-(3-hydroxyazetidin-1-yl)-2-methyl-6′-morpholino-[3,4′-bipyridin]-5-yl)benzamide] | 8.33 |  | 
Cn1cc(-c2cc(NC(=O)c3cccc(C(F)(F)F)c3)cnc2Cl)cc(N2CCOCC2)c1=O [Example 407, N-(2-chloro-1′-methyl-5′-morpholino-6′-oxo-1′,6′-dihydro-[3,3-bipyridin]-5-yl)-3-(trifluoromethyl)benzamide] |  | 8.85 | 
CCOc1ncc(-c2cc(NC(=O)c3cc(C(F)(F)F)c(=O)n(CC)c3)ccc2C)cc1N1CCOCC1 [Example 234, N-(3-(6-ethoxy-5-morpholinopyridin-3-yl)-4-methylphenyl)-1-ethyl-6-oxo-5-(trifluoromethyl)-1,6-dihydropyridine-3-carboxamide] |  | 9.00 | 
CCOc1nnc(-c2cc(NC(=O)c3ccnc(C(C)C)c3)cnc2C)cc1N1CCOCC1 [Example 621, N-(5-(6-ethoxy-5-morpholinopyridazin-3-yl)-6-methylpyridin-3-yl)-2-isopropylisonicotinamide] |  |  | pIC50 [2]: 8.59
Cc1ccc(NC(=O)c2cccc(C(F)(F)F)c2)cc1-c1cc(N2CCOCC2=O)c(=O)n(C)c1 [Example 451, N-(4-methyl-3-(1-methyl-6-oxo-5-(3-oxomorpholino)-1,6-dihydropyridin-3-yl)phenyl)-3-(trifluoromethyl)benzamide] |  |  | pIC50 [2]: 7.08
Cc1ccc(NC(=O)c2ccnc(C(F)F)c2)cc1-c1cc(N2CCOCC2)c2nccn2c1 [Example 850, 2-(difluoromethyl)-N-(4-methyl-3-(8-morpholinoimidazo[1,2-a]pyridin-6-yl)phenyl)isonicotinamide] | 9.22 |  | 
Cc1ccc(NC(=O)c2cnnc(C(F)(F)F)c2)cc1-c1cc(OCCO)nc(N2CCOCC2)c1 [Example 1164, N-(3-(2-(2-hydroxyethoxy)-6-morpholinopyridin-4-yl)-4-methylphenyl)-6-(trifluoromethyl)pyridazine-4-carboxamide] | 9.24 |  | 
Cc1ncc(NC(=O)c2cccc(C(F)(F)F)c2)cc1-c1cc(N2CCOCC2)nc(NC[C@H](C)O)n1 [Example 740, (S)—N-(5-(2-((2-hydroxypropyl)amino)-6-morpholinopyrimidin-4-yl)-6-methylpyridin-3-yl)-3-(trifluoromethyl)benzamide] |  |  | pIC50 [2]: 8.68
Cc1ccc(C(=O)Nc2cccc(C(C)(C)C#N)c2)cc1-c1cc(N2CCOCC2)n(C)c(=O)c1 [Example 515, N-(3-(2-cyanopropan-2-yl)phenyl)-4-methyl-3-(1-methyl-6-morpholino-2-oxo-1,2-dihydropyridin-4-yl)benzamide] |  |  | pIC50 [2]: 8.35
Cc1ncc(NC(=O)c2ccnc(C(C)(C)C#N)c2)cc1-c1cc(N2CCOCC2)c2nccn2c1 [Example 881, 2-(2-cyanopropan-2-yl)-N-(6-methyl-5-(8-morpholinoimidazo[1,2-a]pyridin-6-yl)pyridin-3-yl)isonicotinamide] | 7.49 |  | 
CCOc1cc(C(=O)Nc2ccc(C)c(-c3cc(N4CCOCC4)c(=O)n(C)c3)c2)ccc1F [Example 344, 3-ethoxy-4-fluoro-N-(4-methyl-3-(1-methyl-5-morpholino-6-oxo-1,6-dihydropyridin-3-yl)phenyl)benzamide] |  | 8.51 | 
Cc1ncc(NC(=O)c2ccnc(C(C)(F)F)c2)cc1-c1cc(N2CCOCC2)nc(N2CC(C)(O)C2)c1 [Example 1105, 2-(1,1-difluoroethyl)-N-(2′-(3-hydroxy-3-methylazetidin-1-yl)-2-methyl-6′-morpholino-[3,4′-bipyridin]-5-yl)isonicotinamide] | 8.25 |  | 
Cc1ncc(NC(=O)c2ccnc(C(C)(F)F)c2)cc1-c1cncc(N2CCOCC2)n1 [Example 533, 2-(1,1-difluoroethyl)-N-(6-methyl-5-(6-morpholinopyrazin-2-yl)pyridin-3-yl)isonicotinamide] |  |  | pIC50 [2]: 8.36

SMILES | pIC50 [1] | pIC50 (Table 2, 3 hours reaction) | further results
Cc1ccc(NC(=O)c2ccnc(C(C)(C)O)c2)cc1-c1cc(N2CCOCC2)c(=O)n(C)n1 [Example 638, 2-(2-hydroxypropan-2-yl)-N-(4-methyl-3-(1-methyl-5-morpholino-6-oxo-1,6-dihydropyridazin-3-yl)phenyl)isonicotinamide] |  |  | pIC50 [2]: 8.02
Cc1ccc(NC(=O)c2cccc(S(C)(=O)=O)c2)cc1-c1cc(N2CCOCC2)nc(N2CC(C)(O)C2)c1 [Example 1074, N-(3-(2-(3-hydroxy-3-methylazetidin-1-yl)-6-morpholinopyridin-4-yl)-4-methylphenyl)-3-(methylsulfonyl)benzamide] | 8.73 |  | 
Cc1ccc(NC(=O)c2ccnc(S(C)(=O)=O)c2)cc1-c1cnc(OC2CCOCC2)c(N2CCOCC2)c1 [Example 274, N-(4-methyl-3-(5-morpholino-6-((tetrahydro-2H-pyran-4-yl)oxy)pyridin-3-yl)phenyl)-2-(methylsulfonyl)isonicotinamide] |  | 9.10 | 
Cc1ccc(NC(=O)c2ccnc(C(C)(C)C#N)c2)cc1-c1cnc(OCCO)c(N2CCOCC2)c1 [Example 998, 2-(2-cyanopropan-2-yl)-N-(3-(6-(2-hydroxyethoxy)-5-morpholinopyridin-3-yl)-4-methylphenyl)isonicotinamide] | 8.52 |  | 
CCNc1nc(-c2cc(NC(=O)c3cnnc(C(C)(C)C#N)c3)ccc2C)cc(N2CCOCC2)n1 [Example 709, 6-(2-cyanopropan-2-yl)-N-(3-(2-(ethylamino)-6-morpholinopyrimidin-4-yl)-4-methylphenyl)pyridazine-4-carboxamide] |  |  | pIC50 [2]: 8.47
Cc1ncc(NC(=O)c2ccnc(C3CC3)c2)cc1-c1cc(C2COCCO2)nc(N2CCOCC2)c1 (stereo not drawn) [Example 1169, N-(2′-(1,4-dioxan-2-yl)-2-methyl-6′-morpholino-[3,4′-bipyridin]-5-yl)-2-cyclopropylisonicotinamide] | 8.52 |  | 
CCOc1ncc(-c2cc(NC(=O)c3cccc(S(C)(=O)=O)c3)cnc2C)cc1N1CCOCC1 [Example 242, N-(6′-ethoxy-2-methyl-5′-morpholino-[3,3′-bipyridin]-5-yl)-3-(methylsulfonyl)benzamide] |  | 8.41 | 
Cc1ccc(NC(=O)c2cncc(N(C)C)c2)cc1-c1cc(N2CCOCC2)nc(N2CCOCC2)n1 [Example 18, 5-(dimethylamino)-N-(3-(2,6-dimorpholinopyrimidin-4-yl)-4-methylphenyl)nicotinamide] |  | 9.30 | 
Cc1ccc(NC(=O)c2cccc(C(F)(F)F)c2)cc1-c1nc(N2CCOCC2)c2cnn(C)c2n1 [Example 840, N-(4-methyl-3-(1-methyl-4-morpholino-1H-pyrazolo[3,4-d]pyrimidin-6-yl)phenyl)-3-(trifluoromethyl)benzamide] |  |  | pIC50 [2]: 9.22
CCOc1ncc(-c2cc(NC(=O)c3cc(N4CCN(CC)CC4)cc(C(F)(F)F)c3)cnc2C)cc1N1CCOCC1 [Example 257, N-(6′-ethoxy-2-methyl-5′-morpholino-[3,3′-bipyridin]-5-yl)-3-(4-ethylpiperazin-1-yl)-5-(trifluoromethyl)benzamide] |  | 8.00 | 
Cc1ccc(NC(=O)c2ccnc(C(C)(C)C#N)c2)cc1-c1cc(N2CCOCC2)nc(N2CC(O)C2)c1 [Example 1059, 2-(2-cyanopropan-2-yl)-N-(3-(2-(3-hydroxyazetidin-1-yl)-6-morpholinopyridin-4-yl)-4-methylphenyl)isonicotinamide] | 8.42 |  | 
COc1ncc(-c2cc(NC(=O)c3ccnc(C(C)(C)F)c3)cnc2Cl)cc1N1CCOCC1 [Example 262, N-(2-chloro-6′-methoxy-5′-morpholino-[3,3′-bipyridin]-5-yl)-2-(2-fluoropropan-2-yl)isonicotinamide] |  | 8.47 | 
Cc1ncc(NC(=O)c2ccnc(C(F)(F)F)c2)cc1-c1cnc(OC2CCOCC2)c(N2C3CCC2COC3)c1 [Example 278, N-(5′-(3-oxa-8-azabicyclo[3.2.1]octan-8-yl)-2-methyl-6′-((tetrahydro-2H-pyran-4-yl)oxy)-[3,3′-bipyridin]-5-yl)-2-(trifluoromethyl)isonicotinamide] |  | 8.08 | 
Cc1ccc(NC(=O)c2cccc(OC(F)(F)F)c2)cc1-c1cc(N2CCOCC2)nc(N2CCOCC2)n1 [Example 22, N-(3-(2,6-dimorpholinopyrimidin-4-yl)-4-methylphenyl)-3-(trifluoromethoxy)benzamide] |  | 9.15 | 
Cc1ccc(NC(=O)c2cccc(C(F)(F)F)c2)cc1-c1cc(N2CCOCC2)ccn1 [Example 111, N-(4-methyl-3-(4-morpholinopyridin-2-yl)phenyl)-3-(trifluoromethyl)benzamide] |  | 9.30 | 
Cc1ccc(NC(=O)c2cc(C(F)(F)F)ccn2)cc1-c1cc(N2CCOCC2)c(=O)n(C)c1 [Example 364, N-(4-methyl-3-(1-methyl-5-morpholino-6-oxo-1,6-dihydropyridin-3-yl)phenyl)-4-(trifluoromethyl)picolinamide] |  | 8.68 | 
